Assay results from US20200085979A1, “PRECISION MEDICINE THERANOSTICS AND DIAGNOSTICS A COMBINATION THEREOF” (priority 2018, published 2020).

Legend:
αvβ3 and αvβ5 integrin = test: comparison of the αvβ3 and αvβ5 integrin antagonist peptidomimetic with an αvβ3 integrin peptide in nude mice, same chelator and radionuclide; format: in vivo; conditions: versus αvβ3 integrin peptide
Excerpt: Embodiments of the present invention also utilize the therapeutic compounds of the invention in conjunction with a diagnostic. Compounds containing αvβ3/αvβ5 anti-integrin antagonist peptidomimetic, displaying a selective affinity for the HER2+ protein, vitronectin, fibronectin, tenascin, reelin, kindlin, talin or combination thereof for the diagnosis or prognosis of disorders using PET, SPECT and MRI or combinations by administering an effective amount of activity thereof to a subject, particularly for the diagnosis of diseases related to metastasis and angiogenesis such as breast cancer, lung cancer, ovarian cancer, gastric cancer, esophageal cancer, blood borne cancers, musculoskeletal tumors, melanoma, head and neck cancer, human glioma, cervical cancer, vascular restenosis, osteoporosis, rheumatoid arthritis. […] The compounds referred to may be radiotracers for nuclear medicine, such as the Gallium-68 or Fluorine-18, […], Copper-64, or Technetium-99m, covalently bound to a spacer, chelator, directly to the peptidomimetic, to a nanoparticle or to more than one amino acid unit of the peptidomimetic. Other radiotracers are those reported in the publication Radionuclide Peptide Cancer Therapy, edited by M. Chinol and G. Paganelli, Taylor and Francis CRC Press, 2006. […]

HER2+ breast cancer = test: human PET study versus [18F] Fludeoxyglucose PET scan in an HER2+ breast cancer patient; format: in vivo

Substance: 4-[2-(3,4,5,6-tetrahydropyrimidine-2-ylamino)ethyloxy]benzoyl-2-[N-(3-aminoneopenta-1-carbamyl)]-aminoethylsulfonyl-amino-β-alanine [integrin antagonist peptidomimetic]
- affinity for the targeted organs relative to the comparator αvβ3 integrin peptide (αvβ3 and αvβ5 integrin): three to seven times better
- tumors distant from the primary detected (HER2+ breast cancer): 25 tumors
